Measurements from the NIST ThermoML archive (doi:10.1016/j.jct.2005.03.015).

Experiment: mn = molality of the nth substance listed, in mol/kg
Settings: 298.15 K, 101 kPa, Liquid

N[C@@H](Cc1c[nH]cn1)C(=O)O [L-histidine] + O
Settings	mass density [kg/m3]
m1 = 0.02223	998.29
m1 = 0.04995	999.84
m1 = 0.07431	1001.19
m1 = 0.099	1002.56
m1 = 0.1232	1003.87
m1 = 0.1428	1004.92
m1 = 0.1834	1007.13
m1 = 0.2013	1008.08

C[C@H](N)C(=O)O [(S)-2-aminopropanoic acid] + O
Settings	mass density [kg/m3]
m1 = 0.1065	1000.07
m1 = 0.1518	1001.34
m1 = 0.2006	1002.71
m1 = 0.2568	1004.27
m1 = 0.3059	1005.52
m1 = 0.359	1007.03
m1 = 0.4066	1008.35
m1 = 0.4555	1009.54

NCC(=O)NCC(=O)O [glycylglycine] + O
Settings	mass density [kg/m3]
m1 = 0.02426	998.39
m1 = 0.05026	999.84
m1 = 0.07538	1001.22
m1 = 0.0999	1002.54
m1 = 0.1253	1003.95
m1 = 0.1482	1005.2
m1 = 0.1746	1006.63
m1 = 0.1974	1007.84

NCC(=O)O [2-aminoacetic acid] + O
Settings	mass density [kg/m3]
m1 = 0.0988	1000.19
m1 = 0.1509	1001.82
m1 = 0.2033	1003.44
m1 = 0.2463	1004.78
m1 = 0.2996	1006.4
m1 = 0.3513	1007.96
m1 = 0.4037	1009.55
m1 = 0.4497	1010.94

C[C@@H](O)[C@H](N)C(=O)O [DL-threonine] + O
Settings	mass density [kg/m3]
m1 = 0.0246	998.08
m1 = 0.0494	999.12
m1 = 0.07575	1000.22
m1 = 0.1002	1001.23
m1 = 0.1256	1002.28
m1 = 0.1499	1003.28
m1 = 0.1751	1004.31
m1 = 0.2001	1005.33

NC(CO)C(=O)O (stereo not drawn) [(.+-.)-serine] + O
Settings	mass density [kg/m3]
m1 = 0.02628	998.22
m1 = 0.04948	999.26
m1 = 0.07419	1000.35
m1 = 0.1008	1001.52
m1 = 0.1252	1002.6
m1 = 0.1509	1003.72
m1 = 0.1753	1004.76
m1 = 0.2009	1005.86
